This is an account of results in PMC8291485, “Development of New Benzylpiperazine Derivatives as σ1 Receptor Ligands with in Vivo Antinociceptive and Anti-Allodynic Effects” (ACS Chemical Neuroscience, 2021).

SMILES strings stand for the structures. “Also recorded” adds a separate entry of the source. Read-outs that look alike come from different tables or passages of the source. A value given as a limit tells only on which side of the number the result lay.

The target of data set [1] is T1, σ1R (Cavia porcellus, UniProt Q60492).
T1 construct: from tissue; host or cells: guinea pig brain membrane homogenates
T1 sequence (Q60492 whole entry): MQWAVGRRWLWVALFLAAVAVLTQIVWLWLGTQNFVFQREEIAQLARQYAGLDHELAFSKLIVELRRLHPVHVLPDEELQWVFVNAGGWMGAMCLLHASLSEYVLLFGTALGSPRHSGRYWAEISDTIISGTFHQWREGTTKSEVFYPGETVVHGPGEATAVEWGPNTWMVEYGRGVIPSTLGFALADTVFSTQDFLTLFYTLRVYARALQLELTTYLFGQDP
Briefly: σ1R radioligand binding assay ([3H]-pentazocine, guinea pig brain membrane homogenates). The conditions noted are these: for Ki: mean ± SD of three independent experiments, [3H]-pentazocine, free base; for Ki σ2/Ki σ1: σ1R selectivity ratio over σ2R.
Protocol: The binding assay for σ1R was carried out using guinea pig brain membrane homogenates according to DeHaven-Hudkins et al.,[58] while the binding assay for σ2R was performed following experimental procedures described by Mach et al.[59] Inhibitory constants (Ki) were calculated using the radioligand binding analysis software EBDA/Ligand (Elsevier/Biosoft).

The target in data set [2] is T1, σ1R. Also noted: method as in PMID 27262426. The conditions noted are these: lead compound 8, selectivity ratio; cited from earlier work.
For data set [3], the target named is σ1R. Also noted: method as in PMID 22784008, PMID 31258480, PMID 31981633, PMID 32691179, PMID 28644012. As to conditions: cited from earlier work; for Ki: Figure 1, read-out: Ki σ1.
In data set [4] the test system is formalin-induced inflammatory nociception. As to the kind of experiment: Formalin-induced inflammation assay (time spent licking the paw). Type of data set: in vivo. As to conditions: C57BL/6J mice, 3–30 mg/kg i.p.; 15 as oxalate salt. How it is done: After a 10 min pretreatment (i.p.) of vehicle control (saline), CM304 (3–30 mg/kg, i.p.), or compound 15 (3–30 mg/kg, i.p.), an intraplantar (i.pl.) injection of 5% formalin ([…] in 15 μL) was administered into the right hind paw. Time spent licking the right hind paw was recorded in 5 min intervals for 60 min following injection. The last 55 min of assessment was used to determine the inflammatory response stimulus. Data were analyzed as the summed duration of licking hind paw.
All data are presented as mean ± SEM. Significance is indicated as *p < 0.05 and was analyzed using two-way ANOVA with Tukey’s post hoc analysis. Statistical analysis was performed with the use of GraphPad Prism 9.0 software. […]. The rotarod data are expressed as the % change from baseline performance for each animal’s baseline response.

Data set [5] concerns CCI-induced mechanical allodynia. Briefly: Chronic constriction injury (CCI) model, von Frey mechanical allodynia. Type of data set: in vivo, CD-1 mice. The conditions noted are these: for anti-allodynic effect in the CCI model (result in words): von Frey, 20–80 min post-injection, 15 10–60 mg/kg i.p. (oxalate salt). Here is the method:
CCI was introduced in CD-1 mice that were first anesthetized with isoflurane as described by Hoot et al.[66] and Cirino et al.[35] to induce mechanical allodynia.[51]−[54] After anesthetization, mice were subjected to surgery where an incision was made along the surface of the biceps femoris of the right hind paw.[66] Blunt forceps were used to split the muscle and expose the right sciatic nerve. The tips of two 0.1–10 μL pipet tips facing opposite directions were passed under the sciatic nerve to allow for easy passing of two sutures under the nerve, 1 mm apart. The sutures were tied loosely around the nerve and knotted twice, and the skin was closed with 29 mm skin staples. Mice were given a 7 day recovery period prior to the baseline von Frey testing as described below to confirm the induction of hyperalgesia in each mouse. […] Allodynic mice were then administered (i.p.) either vehicle (saline), morphine (10 mg/kg, i.p.), gabapentin (50 mg/kg, i.p.), CM304 (45 mg/kg, i.p.), or compound 15 (10–60 mg/kg, i.p.). Note that gabapentin was tested 1 h postinjection to circumvent known sedative effects that may confound the assay.[67] Each mouse was then tested for the modulation of tactile allodynia every 20 min up until 80 min post-injection with the use of von Frey testing. The assessment of mechanical allodynia was performed to measure compound 15’s efficacy against CCI-induced allodynia as described.[51]−[54] Mice were habituated on a mesh platform for 1 h prior to testing. Filaments of increasing pressure (0.4–6 g) were applied and then held to the plantar surface of both the injured and uninjured hind paws of mice for approximately 1–2 s prior to drug administration to record baseline responses to a peripheral stimulus. The filaments were applied with increasing strengths, and threshold responses were defined as two hind paw responses per trial of the same filament strength. Control or test compounds were administered (i.p.), and paw-withdrawal thresholds were again recorded from 20 to 80 min postinjection. Each hind paw was tested in a counterbalanced manner. Each time was measured in triplicate and then averaged. Responsiveness was a clear withdrawal, shaking, or licking of the paw. To account for variability between mice, data are presented as the percent of baseline paw withdrawal thresholds following filament stimulation of the ipsilateral hind paw. The following equation was used: % anti-allodynia = 100 × ([mean paw withdrawal force {g} in control group – paw withdrawal force {g} of each mouse]/mean paw withdrawal force [g] in control group).

Data set [6] has as its target T2, σ2R (Rattus norvegicus, UniProt Q5U3Y7).
T2 sequence (Q5U3Y7 1-176): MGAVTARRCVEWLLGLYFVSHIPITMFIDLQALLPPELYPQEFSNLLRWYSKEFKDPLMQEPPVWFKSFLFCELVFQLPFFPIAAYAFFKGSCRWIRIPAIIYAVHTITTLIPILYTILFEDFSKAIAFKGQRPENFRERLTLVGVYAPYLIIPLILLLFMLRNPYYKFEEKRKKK
Also noted: method as in PMID 22784008, PMID 31258480, PMID 31981633, PMID 32691179, PMID 28644012. As to conditions: cited from earlier work.

One may read the Ki as the dissociation constant of the complex between target and ligand, obtained from inhibition or displacement. With `COc1ccc(CN2CCN(C(=O)CCc3ccccc3)CC2)cc1` [Compound 21, 1-{4-[(4-Methoxyphenyl)methyl]piperazin-1-yl}-3-phenylpropan-1-one], in data set [1], the Ki stood at 8.8 ± 0.22 nM and the “Ki σ2/Ki σ1” value was determined as 370.

`COc1ccc(CN2CCN(C(=O)CCCCC3CCSS3)CC2)cc1` (stereo not drawn) [Compound 8]: the “Ki σ2/Ki σ1” value in data set [2] was 432.

As to `OCCCN1CCCC2CC1c1cc(-c3ccc(C(F)(F)F)cc3)ccc12` (stereo not drawn) [Compound 4], the inhibitory constant (Ki) in data set [3] was greater than 1000 nM.

For the molecule `FCCC1Cc2ccccc2C2(CCC(N3CCN(C4CCCCC4)CC3)CC2)O1` (stereo not drawn) [trans-7], the Ki in data set [3] is 12 nM.

Consider `COc1ccc(CN2CCN(C(=O)CCC3CCCCC3)CC2)cc1` [Compound 15, 3-Cyclohexyl-1-{4-[(4-methoxyphenyl)methyl]piperazin-1-yl}propan-1-one], for which, in data set [1], the inhibitory constant (Ki) is 1.6 ± 0.05 nM and the “Ki σ2/Ki σ1” value is 886. Besides, in data set [4], the “antinociception in the formalin assay (result in words)” value is “dose-dependent (3–60 mg/kg, i.p.) antinociception and anti-allodynic effects; also recorded: significant dose-dependent antinociception; also recorded: dose-dependent increase in % antinociception; also recorded: significant antinociceptive and anti-allodynic effects”. In addition, in data set [5] (60 mg/kg, i.p., at 20, 60, and 80 min post-injection, p < 0.05), the “paw withdrawal thresholds in the CCI model (result in words)” value is “significant increases in withdrawal thresholds”. The “anti-allodynic effect in the CCI model (result in words)” value in data set [5] (CD-1 mice, CM304 45 mg/kg i.p.) was “dose-dependent (3–60 mg/kg, i.p.) antinociception and anti-allodynic effects; also recorded: significant dose-dependent anti-allodynic effects; also recorded: significant antinociceptive and anti-allodynic effects”.

As for `COc1cc2c(cc1OC)CN(CCCCn1c(=O)n(C)c3ccccc31)CC2` [Compound 3, 1-(4-(6,7-dimethoxy-3,4-dihydroisoquinolin-2(1H)-yl)butyl)-3-methyl-1H-benzo[d]imidazol-2(3H)-one], in data set [3], the Ki was 560 nM. Moreover, in data set [6] (printed in Figure 1, σ2R selectivity), the “Ki σ1/Ki σ2” value is on record as > 1,302.

Regarding `O=c1sc2cc(CCCF)ccc2n1CCN1CCCCCC1` [Compound 1], in data set [5] (CD-1 mice, CM304 45 mg/kg i.p., began to diminish at 60 min), the “time of peak anti-allodynic effect” value amounted to 40 min. In addition, the “anti-allodynic effect in the CCI model (result in words)” value in data set [5] (CD-1 mice, CM304 45 mg/kg i.p.) was “anti-allodynic effects that are comparable to those of gabapentin”. In addition, the Ki in data set [3] is 0.96 nM; in data set [6] (Figure 1, read-out: Ki σ2), 467 nM. The “Ki σ2/Ki σ1” value in data set [3] (printed in Figure 1, σ1R selectivity) is on record as greater than 486.

Usually melting point stands for the temperature, or range, at which the solid turns liquid. In the case of `COc1ccc(CN2CCN(C(=O)CCCc3ccccc3)CC2)cc1` [Compound 14, 1-{4-[(4-Methoxyphenyl)methyl]piperazin-1-yl}-4-phenylbutan-1-one], the melting point was 91 to 93.9 °C. In data set [1], affinity was put at a Ki of 13.3 ± 0.22 nM and the “Ki σ2/Ki σ1” value is reported as 124.

For `O=c1oc2ccc(Cl)cc2n1CCCCN1CCCCCC1` [Compound 6], the Ki in data set [3] was 2.3 nM.

`COc1ccc(CN2CCN(C(=O)/C=C/c3ccccc3)CC2)cc1` [Compound 16, (2E)-1-{4-[(4-Methoxyphenyl)methyl]piperazin-1-yl}-3-phenylprop-2-en-1-one] came in with a melting point of 120.8 to 122.6 °C. Besides, in data set [1], the Ki worked out at 11.3 ± 0.26 nM and the “Ki σ2/Ki σ1” value turned out to be 351.

`COc1ccc(CN2CCN(C(=O)Cc3ccccc3)CC2)cc1` [Compound 22, 1-{4-[(4-Methoxyphenyl)methyl]piperazin-1-yl}-2-phenylethan-1-one]: the melting point was 97.6 to 99.8 °C. In data set [1], the inhibition constant Ki was 145 ± 0.5 nM and the “Ki σ2/Ki σ1” value is given as 160.

On to `O=C(CCCCc1ccccc1)N1CCN(Cc2ccc(CO)cc2)CC1` [Compound 24, 1-(4-{[4-(Hydroxymethyl)phenyl]methyl}piperazin-1-yl)-5-phenylpentan-1-one], for which, in data set [1], the inhibition constant (Ki) turned out to be 6.1 ± 0.1 nM and the “Ki σ2/Ki σ1” value was 423.

Regarding `CC(CCCn1c(=O)sc2cc(F)ccc21)N1CCN(C2CCCCC2)CC1` (stereo not drawn) [Compound 5], the inhibition constant (Ki) in data set [3] was 2.4 nM.

For `FCCC1Cc2ccccc2C2(CCC(N3CCN(C4CCCCC4)CC3)CC2)O1` (stereo not drawn) [cis-7], in data set [3], the inhibition constant Ki is 19 nM.

Consider `COc1ccc(CN2CCN(C(=O)CCCOc3ccccc3)CC2)cc1` [Compound 20, 1-{4-[(4-Methoxyphenyl)methyl]piperazin-1-yl}-4-phenoxybutan-1-one], for which the melting point was in the range of 88.3 to 91.3 °C. Moreover, in data set [1], the Ki came out at 102 ± 0.6 nM and the “Ki σ2/Ki σ1” value was found to be 43.

As to `COc1ccc(CN2CCN(C(=O)CCCCc3ccccc3)CC2)cc1` [Compound 13, 1-{4-[(4-Methoxyphenyl)methyl]piperazin-1-yl}-5-phenylpentan-1-one], in data set [1], the inhibition constant (Ki) came out at 18.1 ± 0.44 nM and the “Ki σ2/Ki σ1” value came out at 64.
